The source of these data is US6916906B1, “Polypeptides implicated in the expression of resistance to glycopeptides, in particular in gram-positive bacteria, nucleotide sequence coding for these polypeptides and use for diagnosis” (priority 1990, dated 2005).

The test system of one experiment is E. faecalis JH2-2. Description: MIC after inactivation of vanS by insertion in plasmid pAT80. It is filed as cell-based, Enterococcus faecalis. The note with it: inactivation of vanS in pAT80, compared with pAT80. From the text:
The restriction fragments of pIP816 (Tra^−, Mob^+, Vm^r) were cloned in derivatives of the vector pAT29 which constitutes a shuttle vector between the Gram-positive and Gram-negative bacteria (oriR pAMβ1, oriR pUC, oriT RK2, spc, lacZ) (Trieu-Cuot et al., 1990, Nucleic Acids Res. 18:4296). This vector was constructed by the inventors and used to transform the strain E. coli JM103 ((lac-proAB), supE, thi, strA, sbcB15, endA, hspR4, F traD36, proAB, LacI^q, lacZ M15) (Messing et al., 1983, Methods Ezymol. 101:20-78). The plasmid DNA was prepared by an alkaline lysis protocol on a small scale (Sambrook et al., 1982, Molecular cloning, a laboratory manual. Cold Spring Harbor Laboratory, Cold Spring Harbor N.Y.) and introduced by electroporation (Cruz-Rodz A. L. et al., 1990, Mol. Gen. Genet. 224: 152-154) in E. faecalis JH2-2 (Fus^R, Rif^R) (Jacob A. E. et al., 1974, J. Bacteriol. 117: 360-372), by using a Gene Pulser apparatus (Bio-Rad Laboratories, Richmond, Calif.). The restriction profiles of the purified plasmids from E. faecalis and E. coli were compared in order to detect possible rearrangements of DNA.
The cultures were grown in brain-heart broth (BHI—Brain Heart Infusion Broth) or on agar at 37° C. […]

A further experiment relates to BM4175. Description: Minimal inhibitory concentration of vancomycin for BM4175 (vanC inactivated by insertion). It is filed as cell-based. The conditions noted are these: Enterococcus gallinarum; BM4175, pAT217 integrated into vanC. The protocol:
(§1) The cultures were grown in brain-heart broth (BHI—Brain Heart Infusion Broth) or on agar at 37° C. The method of Steers et al (Antibiot. Chemother. Basel. 9: 307-311) was used to determine the minimal inhibitory concentrations (MICs) of the antibiotics on a Mueller-Hinton gelose agar medium.
(§2) In order to evaluate the contribution of vanC to resistance to vancomycin in E. gallinarum BM4174, the vanC gene was inactivated by insertion. […] The resulting pAT217 plasmid was introduced into BM4174 by electroporation (Cruz-Rodz et al., 1990, Mol. Gen. Genet. 224:152-154) and the clones supposed to result from a homologous recombination leading to the integration of pAT217 into vanC were selected on erythromycin. The clone BM4175 was compared with BM4174 by Southern hybridization using the probe C and aphA-3 specific for pAT114. The two probes hybridized with the EcoRI fragment of 8.6 kb from BM4175.

The test system of a further experiment is E. gallinarum BM4174. The experiment is described as follows: Minimal inhibitory concentration of vancomycin for BM4174. The note with it: Enterococcus gallinarum, read-out: minimal inhibitory concentration. In kind it is cell-based. The protocol: as §1, §2
Experiment [1] concerns strain with a high level of resistance, in particular Gram-positive cocci. Description: MIC towards strains with a high level of resistance. In kind it is cell-based.
Experiment [2] deals with strains with low-level resistance. The experiment is described as follows: MIC towards strains with low-level resistance. It is filed as cell-based.

In the case of `O=C(N[C@H](CO)[C@H](O)c1ccc([N+](=O)[O-])cc1)C(Cl)Cl` [chloramphenicol], the “change of minimal inhibitory concentration (MIC)” value in the experiment with E. faecalis JH2-2 is “two-fold reduction”.
With `CN[C@H](CC(C)C)C(=O)N[C@H]1C(=O)N[C@@H](CC(N)=O)C(=O)N[C@H]2C(=O)N[C@H]3C(=O)N[C@H](C(=O)N[C@H](C(=O)O)c4cc(O)cc(O)c4-c4cc3ccc4O)[C@H](O)c3ccc(c(Cl)c3)Oc3cc2cc(c3O[C@@H]2O[C@H](CO)[C@@H](O)[C@H](O)[C@H]2O[C@H]2C[C@](C)(N)[C@H](O)[C@H](C)O2)Oc2ccc(cc2Cl)[C@H]1O` [vancomycin], the MIC in the experiment on BM4175 is 2 µg/mL; in the experiment with E. gallinarum BM4174, 16 µg/mL; in experiment [1] (read-out: minimal inhibitory concentrations (MIC)) it was more than 32 µg/mL. Besides, in the experiment with E. faecalis JH2-2, the “change of minimal inhibitory concentration (MIC)” value is given as “remains unchanged”.
Regarding teicoplanin, the “sensitivity of the strains” value in experiment [2] is on record as “apparently sensitive”. Also, the “minimal inhibitory concentrations (MIC)” value in experiment [1] (strains with a high level of resistance (definition)) is more than 8 µg/mL.
